Experimental data taken from patent publication US8334382B2, “Substituted biaryl piperazinyl-pyridine analogues” (Neurogen Corporation, priority 2004, dated 2012).

Biological target: T1, human capsaicin receptor (Homo sapiens, UniProt Q8NER1)
T1 construct: expressed in transfected cells; host or cells: HEK293, stably transfected with pBK-CMV construct
Experiment: Calcium mobilization assay, determination of antagonist activity
Assay type: cell-based
Conditions: capsaicin at EC50; cells expressing human capsaicin receptor; Example 6
Method in brief: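 IC50 is the antagonist level giving a 50% drop in the capsaicin (EC50) calcium signal, read by FLIPR in Fluo-3 AM-loaded stable HEK293 lines bearing full-length human receptor. Compounds at 1-5 µM final were preincubated 0.5-6 h, room temperature, dark, in KRH pH 7.4.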

T1 sequence (Q8NER1 whole entry): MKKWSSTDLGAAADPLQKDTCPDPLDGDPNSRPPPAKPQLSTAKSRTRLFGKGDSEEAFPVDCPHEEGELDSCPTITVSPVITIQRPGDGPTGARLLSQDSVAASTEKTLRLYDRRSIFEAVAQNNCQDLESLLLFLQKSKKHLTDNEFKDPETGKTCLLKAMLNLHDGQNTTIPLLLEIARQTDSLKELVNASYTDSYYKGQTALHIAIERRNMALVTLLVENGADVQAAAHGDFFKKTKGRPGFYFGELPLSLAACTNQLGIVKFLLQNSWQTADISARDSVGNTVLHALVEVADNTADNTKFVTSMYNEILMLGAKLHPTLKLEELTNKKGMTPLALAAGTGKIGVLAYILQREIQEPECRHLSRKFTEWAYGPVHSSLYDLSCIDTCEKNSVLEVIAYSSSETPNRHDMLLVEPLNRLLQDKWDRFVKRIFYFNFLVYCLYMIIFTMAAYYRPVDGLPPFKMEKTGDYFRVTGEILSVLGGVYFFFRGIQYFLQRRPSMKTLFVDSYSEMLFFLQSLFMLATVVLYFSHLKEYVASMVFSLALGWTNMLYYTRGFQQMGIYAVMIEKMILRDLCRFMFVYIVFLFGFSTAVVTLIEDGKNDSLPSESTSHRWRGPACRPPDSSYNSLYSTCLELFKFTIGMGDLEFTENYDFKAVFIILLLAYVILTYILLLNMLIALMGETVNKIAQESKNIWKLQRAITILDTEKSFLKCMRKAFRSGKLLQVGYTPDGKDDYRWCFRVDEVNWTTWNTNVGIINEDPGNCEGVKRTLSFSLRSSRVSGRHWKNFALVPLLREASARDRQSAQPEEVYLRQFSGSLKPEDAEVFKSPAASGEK

IC50, ≤ 1000 nM:
Cc1cc(C(=O)O)cnc1N1CCN(c2cc(-c3ccc(F)cc3)nc(N3CCC[C@H]3CO)n2)[C@H](C)C1 [Example 151, 6-{4-[6-(4-Fluoro-phenyl)-2-(2-(S)-hydroxymethyl-pyrrolidin-l-yl)-pyrimidin-4-yl]-3-(R)-methyl-piperazin-1-yl}-5-methyl-nicotinic acid]
CC1CCCN1c1nc(-c2ccc(F)cc2)cc(N2CCN(c3ncc(CC(N)=O)cc3Cl)CC2)n1 (stereo not drawn) [Example 152, 2-(5-Chloro-6-{4-[6-(4-fluoro-phenyl)-2-(2-methyl-pyrrolidin-1-yl)-pyrimidin-4-yl]-piperazin-1-yl}-pyridin-3-yl)-acetamide]
Cc1cc(C(=O)O)cnc1N1CCN(c2cc(-c3ccc(F)cc3)nc(N(C)C(C)C)n2)[C@H](C)C1 [Example 153, 6-{4-[6-(4-Fluoro-phenyl)-2-(isopropyl-methyl-amino)-pyrimidin-4-yl]-3-(R)-methyl-piperazin-1-yl}-5-methyl-nicotinic acid]
Cc1cc(C(=O)O)cnc1N1CCN(c2cc(-c3ccc(F)c(Cl)c3)nc(N3CCC[C@H]3C)n2)[C@H](C)C1 [Example 154, 6-{4-[6-(3-Chloro-4-fluoro-phenyl)-2-(2-(R)-methyl-pyrrolidin-1-yl)-pyrimidin-4-yl]-3-(R)-methyl-piperazin-1-yl}-5-methyl-nicotinic acid]
C[C@@H]1CN(c2ncc(C(=O)N3CCC[C@H]3CO)cc2Cl)CCN1c1cc(-c2ccc(F)cc2)nc(N2CCC[C@H]2CO)n1 [Example 155, (5-Chloro-6-{4-[6-(4-fluoro-phenyl)-2-(2-(S)-hydroxymethyl-pyrrolidin-1-yl)-pyrimidin-4-yl]-3-(R)-methyl-piperazin-1-yl}-pyridin-3-yl)-(2-(S)-hydroxymethyl-pyrrolidin-1-yl)-methanone]
C[C@@H]1CN(c2ncc(C(=O)O)cc2Cl)CCN1c1cc(-c2ccc(F)cc2)nc(N2CCC[C@H]2CO)n1 [Example 156, 5-Chloro-6-{4-[6-(4-fluoro-phenyl)-2-(2-(S)-hydroxymethyl-pyrrolidin-1-yl)-pyrimidin-4-yl]-3-(R)-methyl-piperazin-1-yl}-nicotinic acid]
CC(C)N(C)c1nc(-c2ccc(F)cc2)cc(N2CCN(c3ncc(C(=O)O)cc3Cl)C[C@H]2C)n1 [Example 157, 5-Chloro-6-{4-[6-(4-fluoro-phenyl)-2-(isopropyl-methyl-amino)-pyrimidin-4-yl]-3-(R)-methyl-piperazin-1-yl}-nicotinic acid]
O=C(O)c1cnc(N2CCN(c3cc(-c4ccc(F)cc4)nc(N4CCC[C@H]4CO)n3)CC2)c(Cl)c1 [Example 158, 5-Chloro-6-{4-[6-(4-fluoro-phenyl)-2-(2-(S)-hydroxymethyl-pyrrolidin-1-yl)-pyrimidin-4-yl]-piperazin-1-yl}-nicotinic acid]
C[C@@H]1COCCN1c1nc(-c2ccc(F)cc2)cc(N2CCN(c3ncc(C(=O)O)cc3Cl)CC2)n1 [Example 159, 5-Chloro-6-{4-[6-(4-fluoro-phenyl)-2-(3-(R)-methyl-morpholin-4-yl)-pyrimidin-4-yl]-piperazin-1-yl}-nicotinic acid]
CC(C)N(C)c1nc(-c2ccc(F)cc2)cc(N2CCN(c3ncc(C(=O)O)cc3Cl)CC2)n1 [Example 160, 5-Chloro-6-{4-[6-(4-fluoro-phenyl)-2-(isopropyl-methyl-amino)-pyrimidin-4-yl]-piperazin-1-yl}-nicotinic acid]
Cc1cc(C(=O)O)cnc1N1CCN(c2cc(-c3ccc(F)c(Cl)c3)nc(N(C)C(C)C)n2)CC1 [Example 161, 6-{4-[6-(3-Chloro-4-fluoro-phenyl)-2-(isopropyl-methyl-amino)-pyrimidin-4-yl] - piperazin-1-yl}-5-methyl-nicotinic acid]
Cc1cc(-c2ncco2)cnc1N1CCN(c2cc(-c3ccc(F)cc3)nc(N3CCC[C@H]3C)n2)[C@H](C)C1 [Example 162, 4-(4-Fluoro-phenyl)-6-[2-(R)-methyl-4-(3-methyl-5-oxazol-2-yl-pyridin-2-yl)-piperazin-1-yl]-2-(2-(R)-methyl-pyrrolidin-1-yl)-pyrimidine]
C[C@@H]1CN(c2ncc(C(=O)O)cc2Cl)CCN1c1cc(-c2ccccc2)nc(N2CCC[C@H]2CO)n1 [Example 163, 5-Chloro-6-{4-[2-(2-(S)-hydroxymethyl-pyrrolidin-1-yl)-6-phenyl-pyrimidin-4-yl]-3-(R)-methyl-piperazin-1-yl}-nicotinic acid]
Cc1cc(-c2nnn[nH]2)cnc1N1CCN(c2cc(-c3ccc(F)cc3)nc(N3CCC[C@H]3C)n2)[C@H](C)C1 [Example 164, 4-(4-Fluoro-phenyl)-6-{2-(R)-methyl-4-[3-methyl-5-(1H-tetrazol-5-yl)-pyridin-2-yl]-piperazin-1-yl}-2-(2-(R)-methyl-pyrrolidin-1-yl)-pyrimidine]
C[C@@H]1CN(c2ncc(C(N)=O)cc2Cl)CCN1c1cc(-c2ccccc2)nc(N2CCC[C@H]2CO)n1 [Example 165, 5-Chloro-6-{4-[2-(2-(S)-hydroxymethyl-pyrrolidin-1-yl)-6-phenyl-pyrimidin-4-yl]-3-(R)-methyl-piperazin-1-yl}-nicotinamide]
C[C@@H]1CN(c2ncc(C(=O)NCCO)cc2Cl)CCN1c1cc(-c2ccccc2)nc(N2CCC[C@H]2CO)n1 [Example 166, 5-Chloro-N-(2-hydroxy-ethyl)-6-{4-[2-(2-(S)-hydroxymethyl-pyrrolidin-1-yl)-6-phenyl-pyrimidin-4-yl]-3-(R)-methyl-piperazin-1-yl}-nicotinamide]
C[C@@H]1CN(c2ncc(C(=O)NCCO)cc2Cl)CCN1c1cc(-c2ccccc2)nc(N2CCC[C@H]2C)n1 [Example 167, 5-Chloro-N-(2-hydroxy-ethyl)-6-{3-(R)-methyl-4-[2-(2-(R)-methyl-pyrrolidin-1-yl)-6-phenyl-pyrimidin-4-yl]-piperazin-1-yl}-nicotinamide]
Cc1ccc(-c2cc(N3CCN(c4ncc(C(=O)O)cc4C)C[C@H]3C)nc(N3CCCC3C)n2)cc1 (stereo partly drawn) [Example 168, 5-Methyl-6-{3-(R)-methyl-4-[2-(2-methyl-pyrrolidin-1-yl)-6-p-tolyl-pyrimidin-4-yl]-piperazin-1-yl}-nicotinic acid]
Cc1cc(-c2ncc[nH]2)cnc1N1CCN(c2cc(-c3ccc(F)cc3)nc(N3CCC[C@H]3C)n2)[C@H](C)C1 [Example 169, 4-(4-Fluoro-phenyl)-6-{4-[5-(1H-imidazol-2-yl)-3-methyl-pyridin-2-yl]-2-(R)-methyl-piperazin-1-yl}-2-(2-(R)-methyl-pyrrolidin-1-yl)-pyrimidine]
Cc1cc(C(=O)O)cnc1N1CCN(c2cc(-c3ccc(F)cc3)nc(N3CCC[C@H]3C)n2)[C@@H](C)C1 [Example 170, 6-{4-[6-(4-Fluoro-phenyl)-2-(2-(R)-methyl-pyrrolidin-1-yl)-pyrimidin-4-yl]-3-(S)-methyl-piperazin-1-yl}-5-methyl-nicotinic acid]
Cc1ccc(-c2cc(N3CCN(c4ncc(C(=O)NCCO)cc4C)C[C@H]3C)nc(N3CCCC3C)n2)cn1 (stereo partly drawn) [Example 171, N-(2-Hydroxy-ethyl)-5-methyl-6-{3-(R)-methyl-4-[6-(6-methyl-pyridin-3-yl)-2-(2-methyl-pyrrolidin-1-yl)-pyrimidin-4-yl]-piperazin-1-yl}-nicotinamide]
